“Also recorded” adds a separate entry of the source.
Key:
[1] = Superoxide anion enzymatic generation assay (xanthine/xanthine oxidase, NBT reduction); format: biochemical; details: xanthine/XOD system, 560 nm, mean ± SD, read-out: Superoxide anion scavenging activity IC50
Procedure: Superoxide anion was generated in an enzymatic system by preparing a mixture of xanthine and xanthine oxidase. The reaction mixture included 0.1 mM EDTA, 50 µg/mL bovine serum albumine (BSA), 25 µM nitroblue tetrazolium, 0.1 mM xanthine and 3.3 × 10^−3 units xanthine oxidase (XOD) in 40 mM sodium carbonate buffer (pH 10.2) in a final volume of 3 mL. After incubation at 25 °C with increasing concentrations of samples, the absorbance of formazan produced was determined at 560 nm.
The inhibitory effect of samples on the generation of superoxide anion were estimated by the equation: Inhibitory ratio = (A0−A1) × 100/ A0; where A0 absorbance with no addition of sample and A1 absorbance with addition of sample. Inhibitory ratio for each sample was plotted as a function of the concentration, then was calculated the IC50 value, with the statistical method of linear regression.

xanthine oxidase (XOD) = target: T1, xanthine oxidase (XOD) (Bos taurus, UniProt P80457); assay: Xanthine oxidase inhibition assay (uric acid formation); format: biochemical; details: for IC50: uric acid from xanthine, 295 nm, mean ± SD
T1 construct: purchased Sigma Aldrich (Gillingam, Dorset, U.K.)
Procedure: Xanthine oxidase inhibition activity was evaluated by the spectrophotometric measurement of the formation of uric acid by xanthine. A 100 µM solution of xanthine in 0.1 M phosphate buffer pH 7.8 with 0.04 units/mL of xanthine oxidase was incubated for 10 min at room temperature and read at 295 nm against a blank sample. Various concentrations of testing compounds were added to samples before the enzyme has been instilled and their effect on the generation of uric acid was used to calculate regression lines and IC50 values.

[2] = Coupled oxidation of β-carotene and linoleic acid (linoleic acid autoxidation assay); details: 15 µg/mL; for antioxidant activity in β-carotene/linoleic acid model (in words): compared with BHT standard; for Linoleic acid autoxidation inhibition (AA), 1 h: t = 60 min; for Linoleic acid autoxidation inhibition (AA), 1 h / Linoleic acid autoxidation inhibition (AA), 2 h: β-carotene bleaching, 50 °C; for Linoleic acid autoxidation inhibition (AA), 2 h: t = 120 min
Procedure: Heat-induced oxidation of an aqueous emulsion system of β-carotene and linoleic acid was measured by the method described by Pratt (1992). A quantity of linoleic acid (20 mg) and Tween 20 (200 mg) were placed in a flask, and a solution of β-carotene (2 mg) in CHCl3 (10 mL) was added. After removal of CHCl3, oxygenated distilled water (50 mL) was added. Aliquots of each compound (200 µL), dissolved in ethanol to a 15 µg/mL solution, were added to each flask with shaking. Samples without test compounds were used as blanks and sample with 2,6 di-tert-butyl-4-methylphenol (BHT) was used as a control substance. Samples were subjected to the oxidation, by placing them in an oven at 50 °C for 3 hours. The absorbance was red at 470 nm at regular intervals to monitor the rate of bleaching of ß-carotene. The antioxidant activities was expressed as AA, calculated with the equation Inhibitory ratio (AA) = 100 [1−A0−At]/ A00−A0t; where A0 was the absorbance at the beginning of the incubation, with compound; At was the absorbance at the time t, with compound; A00 was the absorbance at beginning of the incubation, without compound; A0t the absorbance at the time t, without compound. Each experiment was performed in triplicate.

[3] = TEAC free radical scavenging assay (ABTS radical cation); details: for TEAC: Trolox concentration with inhibition equivalent to a 1 mM solution of the compound, ABTS+., 734 nm, mean ± SD, triplicate
Procedure: The TEAC value is based on the ability of the antioxidant to scavenge the ABTS^+.. ABTS^+. cation radical was produced by the reaction between ABTS (7 mM) in water and potassium persulfate (2.45 mM), kept in the dark at room temperature for 12 hours. ABTS^+. is a blue-green cromogen with a characteristic absorption at 734 nm. The ABTS^+. solution was diluted with PBS, pH 7.4, to an absorbance of 0.70 at 734 nm and equilibrated at 30 °C.
Samples were diluted with methanol to have 0.3 mM, 0.5 mM, 1 mM, 1.5 mM, 2 mM solutions. The reaction was enhanced by the addition of diluted ABTS (1 mL) to 10 µL of each solution of sample or Trolox (standard), or […] of methanol (blank). The determination was repeated three times for each sample solution. The percentage inhibition of absorbance at 734 nm was calculated for each concentration in function of the blank’s absorbance. The percentage inhibition was plotted as a function of compound or standard concentration. The antioxidant activities of compounds 1-6 are expressed as TEAC, Trolox equivalent antioxidant activity. TEAC value is defined as the concentration of standard Trolox solution with equivalent percentage inhibition to a 1 mM concentration solution of the compound after investigation.

Caco-2 cells = assay: H2O2-induced cytotoxicity in differentiated Caco-2 cells, neutral red assay; format: cell-based, human; details: for viability at 250 µM: compound 250 μmol/L; for protection against H2O2-induced toxicity (in words): compound 250 µmol/L, pretreatment before 10 mmol/L H2O2
Procedure: The Caco-2 cells strain was obtained from Prof. A. Leone research group (Dipartimento di Scienze Farmaceutiche, Sezione Biologica, Università degli Studi di Salerno, Fisciano, Italy) and used between passages 75 to 90. The cells were routinely maintained in DMEM, containing 200 mL/L FCS, 10 mL/L of 100× nonessential aminoacids, 2 mmol/L L-glutamine, 5 × 10^4 IU/L penicillin, 50 mg/L streptomycin at 37 °C in a 5% CO2 atmosphere at 90-100% relative humidity. Cell were grown in 10-cm petri dishes. For experiments, cells were seeded at a density of 90,000 cells/cm^2 in a Transwell insert, and the medium (0.1 mL in the insert and 0.8 mL in the well) was changed every 48 h. Fourteen to sixteen days after confluence, the integrity of the monolayer of differentiated cells was monitored according to the method of Hildago et al..
An iron-free medium (EMEM) was used for the oxidative stress induction experiments. The oxidative stress was induced in the apical compartment of the transwell insert by addition of H2O2. After 20 h of incubation, several oxidative stress markers were measured. To assay the capacity of these compounds to protect Caco-2 cells from ROM-mediated oxidative injury, cells were preincubated for 4 h with compounds, which had been added to the apical side of monolayer. After the end of preincubation time, the medium was changed before the addition of the of the oxidative stress-inducing agents.
We assessed the cytotoxicity of ROM on Caco-2 by the viability test of neutral red uptake, performed according to the procedure of Fautz et al.. After oxidative stress induction the medium in the insert was removed and replaced with 0.1 mL of fresh medium containing […] neutral red. At the end of 3 h of incubation, the medium was removed and cells were washed twice with PBS; finally the incorporated neutral red was released from cells by incubation for 15 min at room temperature in the presence of 1 mL of cell lysis buffer containing acetic acid (1%, v/v) and ethanol (50% v/v). To measure the dye taken up, the cell lysis products were centrifuged and supernatants spectrophotometrically measured at 540 nm.

[4] = Homo sapiens, Caco-2, 4 h preincubation, then 10 mmol/L H2O2 for 20 h, neutral red, read-out: cell viability

T1 sequence (P80457 2-1332 limits assumed): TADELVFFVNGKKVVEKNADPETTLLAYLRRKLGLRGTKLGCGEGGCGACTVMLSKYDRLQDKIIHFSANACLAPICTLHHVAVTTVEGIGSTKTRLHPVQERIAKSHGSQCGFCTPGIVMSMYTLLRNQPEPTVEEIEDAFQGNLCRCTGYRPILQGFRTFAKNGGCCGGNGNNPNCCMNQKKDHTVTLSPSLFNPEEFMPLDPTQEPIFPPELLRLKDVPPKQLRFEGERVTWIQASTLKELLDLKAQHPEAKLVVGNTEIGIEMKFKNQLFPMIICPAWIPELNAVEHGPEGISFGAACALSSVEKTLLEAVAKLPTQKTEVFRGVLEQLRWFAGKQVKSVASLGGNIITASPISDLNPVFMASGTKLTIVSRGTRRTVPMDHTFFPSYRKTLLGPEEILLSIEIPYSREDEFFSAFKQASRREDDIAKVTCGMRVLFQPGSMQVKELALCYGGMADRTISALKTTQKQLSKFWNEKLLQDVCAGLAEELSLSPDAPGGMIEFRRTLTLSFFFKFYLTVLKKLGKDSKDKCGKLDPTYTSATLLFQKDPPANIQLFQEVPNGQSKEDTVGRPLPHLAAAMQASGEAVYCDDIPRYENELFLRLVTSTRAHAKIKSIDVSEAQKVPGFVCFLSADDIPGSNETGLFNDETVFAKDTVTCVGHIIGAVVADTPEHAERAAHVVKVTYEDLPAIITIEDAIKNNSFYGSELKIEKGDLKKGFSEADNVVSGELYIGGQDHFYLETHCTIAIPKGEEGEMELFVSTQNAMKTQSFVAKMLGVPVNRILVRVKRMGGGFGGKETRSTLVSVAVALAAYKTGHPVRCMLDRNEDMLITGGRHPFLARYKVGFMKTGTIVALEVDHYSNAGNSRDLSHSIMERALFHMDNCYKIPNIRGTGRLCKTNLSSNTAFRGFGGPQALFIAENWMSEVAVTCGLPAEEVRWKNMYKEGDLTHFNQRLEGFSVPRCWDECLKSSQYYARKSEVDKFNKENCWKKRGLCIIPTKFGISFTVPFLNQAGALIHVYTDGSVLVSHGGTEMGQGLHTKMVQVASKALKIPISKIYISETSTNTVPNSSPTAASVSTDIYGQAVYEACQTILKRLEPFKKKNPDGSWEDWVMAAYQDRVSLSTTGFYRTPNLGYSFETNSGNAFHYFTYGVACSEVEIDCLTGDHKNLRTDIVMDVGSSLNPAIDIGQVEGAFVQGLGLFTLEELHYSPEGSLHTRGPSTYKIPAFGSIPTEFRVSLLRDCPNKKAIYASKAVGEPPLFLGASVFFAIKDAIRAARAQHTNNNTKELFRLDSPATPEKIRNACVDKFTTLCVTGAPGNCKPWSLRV

| Compound | IC50 [1] [µM] | activity as direct inhibitor of xanthine oxidase (in words) (xanthine oxidase (XOD)) | IC50 (xanthine oxidase (XOD)) [µM] | antioxidant activity in β-carotene/linoleic acid model (in words) [2] | Linoleic acid autoxidation inhibition (AA), 1 h [2] [%] | Linoleic acid autoxidation inhibition (AA), 2 h [2] [%] | TEAC [3] [mM] | viability at 250 µM (Caco-2 cells; [4]) [%] | viability at 500 µM (Caco-2 cells; Homo sapiens, Caco-2, compound 500 μmol/L, 4 h preincubation, then 10 mmol/L H2O2 for 20 h, neutral red, read-out: cell viability) [%] | protection against H2O2-induced toxicity (in words) (Caco-2 cells) | protection against H2O2-induced alterations (in words) (Caco-2 cells; compound 500 µmol/L preincubation) | radical scavenging activity in ABTS/TEAC test (in words) [3] | loss of cell viability (Caco-2 cells; 20 h of treatment with 10 mmol/L H2O2) | cell viability (Caco-2 cells; H2O2 10 mmol/L alone, 20 h, neutral red) [%] | viability at 125 µM (Caco-2 cells; Homo sapiens, Caco-2, compound 125 μmol/L, 4 h preincubation, then 10 mmol/L H2O2 for 20 h, neutral red, read-out: cell viability) [%] |
| --- | --- | --- | --- | --- | --- | --- | --- | --- | --- | --- | --- | --- | --- | --- | --- |
| Oc1ccc(CCc2cc(O)cc(O)c2)cc1 [Dihydroresveratrol, reference compound] | 60.9 ± 1.12 |  | > 100 | lower activity | 16.11 | 20.12 | 2.3 ± 0.07 |  |  |  |  |  |  |  |  |
| OO [Compound H2O2, hydrogen peroxide, reference compound] |  |  |  |  |  |  |  |  |  |  |  |  | about 25% | 75 |  |
| O=c1c(O)c(-c2ccc(O)c(O)c2)oc2cc(O)cc(O)c12 [Quercetin, quercetin, reference compound] |  |  |  |  |  |  | 2.91 ± 0.02 |  |  |  |  |  |  |  |  |
| Cc1cc(C(C)(C)C)c(O)c(C(C)(C)C)c1 [BHT, 2,6 di-tert-butyl-4-methylphenol, reference compound] |  |  |  |  | 60.00 | 51.07 |  |  |  |  |  |  |  |  |  |

The next lines start with results.

| IC50 [1] [µM] | activity as direct inhibitor of xanthine oxidase (in words) (xanthine oxidase (XOD)) | IC50 (xanthine oxidase (XOD)) [µM] | Compound | antioxidant activity in β-carotene/linoleic acid model (in words) [2] | Linoleic acid autoxidation inhibition (AA), 1 h [2] [%] | Linoleic acid autoxidation inhibition (AA), 2 h [2] [%] | TEAC [3] [mM] | viability at 250 µM (Caco-2 cells; [4]) [%] | viability at 500 µM (Caco-2 cells; Homo sapiens, Caco-2, compound 500 μmol/L, 4 h preincubation, then 10 mmol/L H2O2 for 20 h, neutral red, read-out: cell viability) [%] | protection against H2O2-induced toxicity (in words) (Caco-2 cells) | protection against H2O2-induced alterations (in words) (Caco-2 cells; compound 500 µmol/L preincubation) | radical scavenging activity in ABTS/TEAC test (in words) [3] | loss of cell viability (Caco-2 cells; 20 h of treatment with 10 mmol/L H2O2) | cell viability (Caco-2 cells; H2O2 10 mmol/L alone, 20 h, neutral red) [%] | viability at 125 µM (Caco-2 cells; Homo sapiens, Caco-2, compound 125 μmol/L, 4 h preincubation, then 10 mmol/L H2O2 for 20 h, neutral red, read-out: cell viability) [%] |
| --- | --- | --- | --- | --- | --- | --- | --- | --- | --- | --- | --- | --- | --- | --- | --- |
| 78.2 ± 1.15 | no activity | > 100 | COc1cc(CCc2ccc(O)cc2)cc(Oc2ccc(CCc3cc(OC)cc(O)c3C(=O)O)cc2)c1 [Compound 3, 12-O-[3’-(5’-methoxy-12’-hydroxy)-bibenzyl]-5-hydroxy-3-methoxybibenzyl-6-carboxylic acid] | no activity | 0 | 0 | 1.22 ± 0.02 |  |  |  |  |  |  |  |  |
| 81.11 ± 0.68 | moderate activity | 71.39 ± 0.45 | COc1cc(CCc2ccc(O)cc2)c(C(=O)O)c(OC(C)=O)c1 [Compound 2, 5-acetyloxy-12-hydroxy-3-methoxybibenzyl-6-carboxylic acid] | moderate activity | 28.51 | 19.16 | 1.38 ± 0.01 |  |  |  |  |  |  |  |  |
| 96.93 ± 0.42 | no activity | > 100 | COc1cc(O)c(C(=O)O)c(CCc2ccc(O)cc2)c1 [Compound 1, 5,12-dihydroxy-3-methoxy-dibenzyl-6-carboxylic acid] | highest activity after 1h; also recorded: moderate activity | 32.60 | 11.70 | 1.98 ± 0.05 | 80 | 88 | inactive | prevented | most active |  |  |  |
| 58.4 ± 1.18 | moderate activity | 64 ± 2.13 | COc1ccc(CCc2cc(OC)cc(O)c2C(=O)O)cc1 [Compound 5, 5-hydroxy-3,12-dimethoxy-6-carboxybibenzyl] | moderate activity | 26.56 | 19.72 | 1.21 ± 0.01 |  |  |  |  |  |  |  |  |
| 83.3 ± 1.06 | no activity | > 100 | COc1cc(O)cc(CCc2ccc(O)cc2)c1 [Compound 6, 3,12-dihydroxy-5-methoxybibenzyl] | moderate activity | 29.35 | 7.31 | 2.55 ± 0.02 | 98 |  | no decrease in cell viability; also recorded: prevent H2O2-induced cytotoxicity; also recorded: prevented |  | most active compound |  |  | 90 |
| 81.3 ± 2.01 | no activity | > 100 | COc1cc(CCc2ccc(Oc3cc(CCc4ccc(Oc5cc(CCc6ccc(O)cc6)c(C(=O)O)c(OC)c5)cc4)c(C(=O)O)c(OC)c3)cc2)c(C(=O)O)c(OC)c1 [Compound 4, 3-O-{12’-[12’’-O-(3’’,5’’-dimethoxy-6’’-carboxybibenzyl)]-5’-methoxy-6’-carboxybibenzyl}-12-hydroxy-5-methoxybibenzyl-6-carboxylic acid] | no activity | 0 | 0 | 1.5 ± 0.03 |  |  |  |  |  |  |  |  |

Source: article PMC6259833, “Antioxidant Bibenzyl Derivatives from Notholaena nivea Desv” (Molecules, 2011)
